Laboratory results reported in article PMC6930503, “Antiviral, Antimicrobial and Antibiofilm Activity of Selenoesters and Selenoanhydrides” (Molecules, 2019).
Converted amounts (≈) assume the structure as drawn.

Tests used:
[1] = test system: Candida albicans ATCC 10231; settings: reference, range calculated from data in bibliography; cited from earlier work
[2] = test system: Candida krusei ATCC 14243; settings: reference, range calculated from data in bibliography; cited from earlier work
[3] = test system: Candida parapsilosis ATCC 22019; settings: reference, range calculated from data in bibliography; cited from earlier work
[4] = test system: Candida albicans ATCC 10231; assay: Antifungal broth microdilution MIC; type: cell-based; settings: ATCC10231, read-out: Minimal inhibitory concentration
Experimental: (§1) This MIC values were calculated by using the broth microdilution method (Table 3).
(§2) Broth microdilution method. […] Determination of the MIC values was performed by using the broth microdilution method, according to EUCAST standards.

[5] = test system: Candida krusei ATCC 14243; assay: Antifungal broth microdilution MIC; type: cell-based; settings: Pichia kudriavzevii, ATCC14243, read-out: Minimal inhibitory concentration
Experimental: as §1, §2

[6] = test system: Candida parapsilosis ATCC 22019; assay: Antifungal broth microdilution MIC; type: cell-based; settings: Lodderomyces parapsilosis, ATCC22019, read-out: Minimal inhibitory concentration
Experimental: as §1, §2

[7] = test system: Cryptococcus diffluens ATCC 32059; assay: Antifungal broth microdilution MIC; type: cell-based; settings: Naganishia diffluens, ATCC32059, read-out: Minimal inhibitory concentration
Experimental: as §1, §2

[8] = test system: S. aureus ATCC 25923; assay: Biofilm formation assay with crystal violet; type: cell-based; settings: Staphylococcus aureus, ATCC25923, 48 h; for inhibition at 50 µM: compound at 50 μM
Experimental: (§3) The biofilm-forming ability of S. Typhimurium and S. aureus ATCC strains was studied in 96-well microtiter plates, using Luria-Bertani (LB) broth without salt (S. Typhimurium) or tryptic soy broth TSB (S. aureus) in the presence of selenocompounds. Initially, overnight cultures were diluted to an optical density (OD) of 0.1 at 600 nm and then added to each well, with the exception of the medium control wells and compounds were added individually at ½ MIC. The final volume was 200 μL in each well. Plates were incubated at 30 °C, for 48 h, with gentle agitation (100 rpm). After the incubation period, the medium was discarded, and the plate was washed with tap water, to remove unattached cells. Then, 200 μL of crystal violet (CV; 0.1% [v/v]) was added to the wells and incubated for 15 min at room temperature. CV was removed from the wells, and the plate was washed again with tap water. Then, 200 μL of 70% ethanol was added to each well, and the biofilm formation was determined by measuring the OD at 600 nm, using a FLUOstar Optima plate reader (BMG Labtech, Aylesbury, UK). The antibiofilm effect of selenocompounds was expressed in the percentage (%) decrease in biofilm formation. The assay was repeated a minimum of three times. The results were analyzed by using the t-test and p-values of <0.05 were considered significant.

[9] = test system: Candida albicans ATCC 10231; assay: Antifungal disk-diffusion; settings: ATCC10231, 72 h, read-out: Inhibition Zone Diameter
Experimental: (§6) Disk diffusion. The antifungal activity of the selenocompounds against selected pathogenic yeasts were screened, measuring their inhibition zones [49]. Solutions of the selenocompounds were set at two concentrations: 200 µM (from a 10 mM stock solution) and 10 mM. The sterile filter paper discs (diameter (D) 6 mm) impregnated with the solutions (10 µL of solutions) were placed on Saboraud Dextrose Agar (SDA), inoculated with the respective suspensions of yeasts (inocula of 0.5 McFarland’s standard). The solvent (DMSO) served as negative control, and an additional plate was inoculated without disks, to serve as growth control. The inocula were used within 15 min of preparation, the disks were applied within 15 min of inoculating the plates, and incubation started within 15 min of application of the disks (according to EUCAST standards). The plates were then incubated for 72 h, under aerobic conditions, at 37 °C. Inhibition zone diameters generated by the tested compounds (including the diameter of the disc) were measured. All experiments were performed in triplicate.

[10] = test system: Candida tropicalis ATCC 13803; assay: Antifungal disk-diffusion; settings: ATCC13803, 72 h, read-out: Inhibition Zone Diameter
Experimental: as §6

[11] = test system: Candida krusei ATCC 14243; assay: Antifungal disk-diffusion; settings: Pichia kudriavzevii, ATCC14243, 72 h; for zone of inhibition at 200 µM: read-out: Inhibition Zone Diameter, 200 µM on disk, 72 h; for zone of inhibition at 10000 µM: read-out: Inhibition Zone Diameter, 10 mM on disk, 72 h
Experimental: as §6

[12] = test system: Candida glabrata ATCC 36909; assay: Antifungal disk-diffusion; settings: Nakaseomyces glabratus, ATCC36909, 72 h; for zone of inhibition at 200 µM: read-out: Inhibition Zone Diameter, 200 µM on disk, 72 h; for zone of inhibition at 10000 µM: read-out: Inhibition Zone Diameter, 10 mM on disk, 72 h
Experimental: as §6

[13] = test system: Candida parapsilosis ATCC 22019; assay: Antifungal disk-diffusion; settings: Lodderomyces parapsilosis, ATCC22019, 72 h, read-out: Inhibition Zone Diameter
Experimental: as §6

[14] = MTT cytotoxicity assay on Vero cells; settings: African green monkey
[15] = test system: HSV-2; assay: Anti-HSV-2 activity by qPCR in infected Vero cells; settings: for minimal effective concentration: Human alphaherpesvirus 2, Vero, 24 h, read-out: lowest concentration with (significant) antiviral activity against HSV-2, Vero cells infected with HSV-2, MOI 0.01, qPCR after 24 h; for antiviral activity at x-fold lower concentration than acyclovir: compared with acyclovir
[16] = test system: S. enterica serovar Typhimurium 14028s; assay: Biofilm formation assay with crystal violet; type: cell-based, Salmonella enterica serovar Typhimurium; settings: Salmonella enterica, compound at 50 μM, 48 h
Experimental: as §3

[17] = test system: S. enterica serovar Typhimurium 14028s; assay: Antibiofilm effect in combination with tetracycline; type: cell-based, Salmonella enterica serovar Typhimurium; settings: compound at ½ MIC; for antibiofilm effect in the presence of TET: 1.25 µM of TET; for effect on the antibiofilm activity of TET compared to TET alone: 2.5 µM of TET
Experimental: (§4) […]; 4, 5, 7, 8 and 9 for S. Typhimurium).
(§5) […]. The effect was determined by two-fold broth microdilution method in 96-well plates, using serial dilutions of TET and CIP. The first four rows contained two-fold dilutions of antibiotics, and combinations of the antibiotics and tested compounds were added into the last four rows. The overnight bacterial cultures were diluted to an OD of 0.1 at 600 nm and then added to each well, in 50 μL LB, without salt or TSB, with the exception of the medium control wells. The plates were then incubated at 30 °C, for 48 h, with gentle agitation (100 rpm), and the biofilm formation was determined by measuring the OD at 600 nm, using a FLUOstar Optima plate reader. The antibiofilm effect of antibiotic alone and in combination with selenocompounds was expressed in the percentage (%) of decrease in biofilm formation. The results were analyzed by using the t-test and p-values of <0.05 were considered significant.

[18] = test system: S. aureus ATCC 25923; assay: Antibiofilm effect in combination with ciprofloxacin; type: cell-based, Staphylococcus aureus; settings: CIP at 1.6 µM, compound at ½ MIC
Experimental: as §4, §5

[19] = test system: selected pathogenic yeasts; assay: Antifungal disk-diffusion screening, overall statement on all evaluated strains; settings: 200 µM and 10 mM on disk
Experimental: as §6

[20] = test system: Cryptococcus diffluens ATCC 32059; assay: Antifungal disk-diffusion; settings: Naganishia diffluens, ATCC32059, 72 h, read-out: Inhibition Zone Diameter
Experimental: as §6

[21] = Vero cells infected with HSV-2, qPCR

## CC[C@H](C)C[C@H](C)CCCCCCCCC(=O)N[C@H]1C[C@@H](O)[C@@H](NCCN)NC(=O)[C@@H]2[C@@H](O)CCN2C(=O)[C@H]([C@H](O)CCN)NC(=O)[C@H]([C@H](O)[C@@H](O)c2ccc(O)cc2)NC(=O)[C@@H]2C[C@@H](O)CN2C(=O)[C@H]([C@@H](C)O)NC1=O [CSP, caspofungin]
[1]
  Minimal inhibitory concentration: ≤0.007 to 0.110 µM
[2]
  Minimal inhibitory concentration: 0.055 to 0.229 µM
[3]
  Minimal inhibitory concentration: 0.110 to 1.83 µM

## O=C1[Se]C(=O)c2ccccc21 [Compound 1]
[4]
  MIC: 50 µM (≈ 10.6 µg/mL)
[5]
  MIC: 100 µM (≈ 21.1 µg/mL)
[6]
  MIC: > 200 µM
[7]
  MIC: > 200 µM
[8]
  inhibition at 50 µM: > 70%
[9]
  zone of inhibition at 200 µM: 14 mm
  zone of inhibition at 10000 µM: > 30 mm
[10]
  zone of inhibition at 200 µM: 3 mm
  zone of inhibition at 10000 µM: > 30 mm
[11]
  zone of inhibition at 200 µM: 11 mm
  zone of inhibition at 10000 µM: > 30 mm
[12]
  zone of inhibition at 200 µM: 2 mm
  zone of inhibition at 10000 µM: 13 mm
[13]
  zone of inhibition at 10000 µM: 6 mm
[14]
  IC50 at 24 h: > 100 µM
[15]
  minimal effective concentration: 12.5 µM
  antiviral activity at concentration x-fold lower than the cytotoxic concentration (IC50 in Vero cells): 8 fold

## C[Se]C(=O)c1ccc(C(=O)[Se]C)s1 [Compound 2]
[16]
  inhibition at 50 µM: > 50%
[14]
  IC50 at 24 h: > 100 µM
[15]; [21]
  antiviral activity against HSV-2 (in words): did not reduce the number of HSV-2

## C[Se]C(=O)c1cccc(C(=O)[Se]C)n1 [Compound 3]
[16]
  inhibition at 50 µM: > 50%
[14]
  IC50 at 24 h: > 100 µM
[15]
  minimal effective concentration: 10 µM

## C[Se]C(=O)c1cccc(C(=O)[Se]C)c1 [Compound 4]
[16]
  inhibition at 50 µM: 75%
[17]
  antibiofilm effect in the presence of TET: significantly higher antibiofilm effects
[14]
  IC50 at 24 h: > 100 µM
[15]; [21]
  antiviral activity against HSV-2 (in words): did not reduce the number of HSV-2

## C[Se]C(=O)c1ccc(C(=O)[Se]C)cc1 [Compound 5]
[16]
  inhibition at 50 µM: 73%
[17]
  effect on the antibiofilm activity of TET compared to TET alone: significantly reduced the activity of the antibiotic
[14]
  IC50 at 24 h: > 100 µM
[15]; [21]
  antiviral activity against HSV-2 (in words): did not reduce the number of HSV-2

## NC(=O)C[Se]C(=O)c1ccccc1 [Compound 6]
[8]
  inhibition at 50 µM: > 70%
[12]
  zone of inhibition at 10000 µM: < 10 mm
[14]
  IC50 at 24 h: > 100 µM
[15]
  minimal effective concentration: 25 µM
  antiviral activity at concentration x-fold lower than the cytotoxic concentration (IC50 in Vero cells): 2 fold

## COC(=O)C[Se]C(=O)c1ccc(Cl)cc1 [Compound 7]
[8]
  inhibition at 50 µM: > 70%
[18]
  effect on the antibiofilm activity of CIP: significantly increased the activity of CIP
[17]
  effect on the antibiofilm activity of TET compared to TET alone: significantly reduced the activity of the antibiotic
[14]
  IC50 at 24 h: > 100 µM
[15]
  minimal effective concentration: 12.5 µM
  antiviral activity at concentration x-fold lower than the cytotoxic concentration (IC50 in Vero cells): 8 fold
[15]; [21]
  concentration at which replication of HSV-2 was completely inhibited: 50 µM
[19]
  antifungal activity in the disk-diffusion assay (in words): did not show antifungal activity

## O=C(C[Se]C(=O)c1ccccc1)Oc1ccccc1 [Compound 8]
[8]
  inhibition at 50 µM: > 70%
[17]
  antibiofilm effect in the presence of TET: significantly higher antibiofilm effects
  effect on the antibiofilm activity of TET compared to TET alone: significantly reduced the activity of the antibiotic
[14]
  IC50 at 24 h: > 100 µM
[15]
  minimal effective concentration: 12.5 µM
  antiviral activity at concentration x-fold lower than the cytotoxic concentration (IC50 in Vero cells): 8 fold

## CC(=O)C[Se]C(=O)c1ccc(Cl)cc1 [Compound 9]
[4]
  MIC: > 200 µM
[5]
  MIC: 50 µM (≈ 13.8 µg/mL)
[6]
  MIC: > 200 µM
[7]
  MIC: 100 µM (≈ 27.6 µg/mL)
[17]
  antibiofilm effect in the presence of TET: significantly higher antibiofilm effects
  effect on the antibiofilm activity of TET compared to TET alone: significantly reduced the activity of the antibiotic
[20]
  zone of inhibition at 200 µM: 12 mm
  zone of inhibition at 10000 µM: 29 mm
[9]
  zone of inhibition at 10000 µM: > 30 mm
[10]
  zone of inhibition at 200 µM: 2 mm
  zone of inhibition at 10000 µM: 25 mm
[11]
  zone of inhibition at 200 µM: 19 mm
  zone of inhibition at 10000 µM: > 30 mm
[12]
  zone of inhibition at 200 µM: 6 mm
  zone of inhibition at 10000 µM: > 30 mm
[13]
  zone of inhibition at 200 µM: 4 mm
  zone of inhibition at 10000 µM: > 30 mm
[14]
  IC50 at 24 h: 31 µM

## CC(C)(C)C(=O)C[Se]C(=O)c1ccc(Cl)cc1 [Compound 10]
[4]
  MIC: > 200 µM
[5]
  MIC: 50 µM (≈ 15.9 µg/mL)
[6]
  MIC: > 200 µM
[7]
  MIC: > 200 µM
[8]; compound at 10 μM
  inhibition at 10 µM: > 70%
[9]
  zone of inhibition at 10000 µM: > 30 mm
[10]
  zone of inhibition at 10000 µM: 16 mm
[11]
  zone of inhibition at 200 µM: 14 mm
  zone of inhibition at 10000 µM: > 30 mm
[12]
  zone of inhibition at 10000 µM: 25 mm
[13]
  zone of inhibition at 200 µM: 2 mm
  zone of inhibition at 10000 µM: > 30 mm
[14]
  IC50 at 24 h: 45 µM
[15]
  minimal effective concentration: 5 µM
  antiviral activity at concentration x-fold lower than the cytotoxic concentration (IC50 in Vero cells): 9 fold
  antiviral activity at x-fold lower concentration than acyclovir: 8 fold

## COc1cc(OC)cc(C(=O)[Se]CC(=O)C(C)(C)C)c1 [Compound 11]
[4]
  MIC: > 200 µM
[5]
  MIC: > 200 µM
[6]
  MIC: 100 µM (≈ 34.3 µg/mL)
[7]
  MIC: 100 µM (≈ 34.3 µg/mL)
[8]; compound at 25 μM
  inhibition at 25 µM: > 70%
[18]
  effect on the antibiofilm activity of CIP: significantly increased the activity of CIP
[20]
  zone of inhibition at 200 µM: 10 mm
  zone of inhibition at 10000 µM: 18 mm
[9]
  zone of inhibition at 10000 µM: 19 mm
[11]
  zone of inhibition at 10000 µM: 12 mm
[12]
  zone of inhibition at 10000 µM: 18 mm
[13]
  zone of inhibition at 200 µM: 14 mm
  zone of inhibition at 10000 µM: > 30 mm
[14]
  IC50 at 24 h: 39 µM
[15]
  minimal effective concentration: 1.25 µM
  antiviral activity at concentration x-fold lower than the cytotoxic concentration (IC50 in Vero cells): 31 fold
  antiviral activity at x-fold lower concentration than acyclovir: 4 fold

## Nc1nc2c(ncn2COCCO)c(=O)[nH]1 [acyclovir, reference compound]
[15]
  minimal effective concentration: 10 µM
[15]; examined concentrations 1.25–2500 μM
  complete inhibition of HSV-2 replication: could not inhibit the replication of HSV-2 completely
